Reference: PMC9354705, “Characterization of TR‐107, a novel chemical activator of the human mitochondrial protease ClpP” (Pharmacology Research & Perspectives, 2022)
Read-outs that look alike come from different tables or passages of the source.

Legend:
MDA‐MB‐231 cells = assay: Cell viability (total cell count, Hoechst stain) in MDA‐MB‐231 cells; format: cell-based, human; conditions: for IC50: Homo sapiens, MDA-MB-231, 72 h
MDA‐MB‐231 xenografts = assay: MDA‐MB‐231 mouse xenograft study; format: in vivo
Method: Mitochondrial DNA copy number was determined as previously described.[23] Briefly, genomic DNA was isolated from tissue lysate with DNeasy Blood & Tissue kit (Qiagen, 69504). mtDNA copy number was determined by quantitative PCR with a human mitochondrial to nuclear DNA ratio kit (Takara Bio USA, 7246).
Female athymic nude mice (Crl:NU[Ncr]‐Foxn1^ nu , Charles River) were 8 weeks old with body weight (BW) range of 19.0–27.0 g on Day 1 of the study. Animals were fed ad libitum water (reverse osmosis, 1 ppm Cl) and NIH 31 Modified and Irradiated Lab Diet® consisting of 18.0% crude protein, 5.0% crude fat, and 5.0% crude fiber. Mice were housed on irradiated Enrich‐o'cobs™ Laboratory Animal Bedding in static microisolators on a 14‐h light cycle at 20–22°C and 40%–60% humidity. Charles River Discovery Services North Carolina (CR Discovery Services) specifically complies with the recommendations of the Guide for Care and Use of Laboratory Animals with respect to restraint, husbandry, surgical procedures, feed and fluid regulation, and veterinary care. The animal care and use program at CR Discovery Services is accredited by the Association for Assessment and Accreditation of Laboratory Animal Care International.
MDA‐MB‐231 human breast adenocarcinoma cells were grown to mid‐log phase in RPMI‐1640 supplemented with 10% FBS, 2 mM glutamine, 100 units/ml sodium penicillin G, 25 μg/ml gentamicin, 100 μg/ml streptomycin sulfate, 0.075% sodium bicarbonate, 10 mM HEPES, and 1 mM sodium pyruvate. Cells were cultures at 37°C and 5% CO2.
MDA‐MB‐231 cells were harvested during exponential growth and resuspended in cold, sterile DPBS. Each animal received an orthotopic injection of 5 × 10^6 cells (0.05 ml volume) into the mammary fat pad. Tumor growth was monitored as the average tumor size approached the target range of 60–100 mm^3. Tumors were measured in two dimensions via caliper and volume was calculated using the following formula: Tumor Volume=w^2×l/2, where w is the width and l is the length (mm) of the tumor. Tumor weight was estimated based on the assumption that 1 mg = 1 mm^3. Fourteen days later (Day 1), animals were sorted into groups (n = 10 per group) with a mean tumor volume of 70–73 mm^3.
Compounds were administered orally (p.o.) in a dosing volume of 10 ml/kg. Twice daily doses (B.I.D) were administered at least 6 h apart.
Tumors were measured using calipers biweekly and animals were euthanized upon reaching tumor volume > 1500 mm^3 or on the final study day (Day 36), whichever came first. Time to endpoint (TTE) for analysis was calculated for animals that exited the study due to tumor volume using the following equation: TTE=log10endpoint volume−b/m, where TTE is expressed in days, endpoint volume is expressed in mm^3, b is the y‐intercept, and m is the slope of the line obtained by linear regression of a log‐transformed tumor growth data set. […] In instance where this equation yields a TTE day preceding the day prior to reaching the endpoint or exceeding the day of reaching the endpoint, a linear interpolation was performed to approximate TTE. Animals documented as having died of nontreatment‐related causes due to accident or unknown etiology were excluded from TTE calculations and all further analysis. Animals documented having died due to treatment‐related deaths or nontreatment‐related due to metastasis were assigned a TTE value equivalent to the day of death. Treatment outcome was evaluated from tumor growth delay (TGD) defined as the increase in the median TTE in the treatment group compared with the control group.
On Day 36, all animals in all groups were sampled. Tumors were excised, divided into two parts, and weighed. Part 1 was preserved in a 5 ml fixative solution (4% formaldehyde, 2% glutaraldehyde in 0.1 M cacodylate buffer) and stored at 4°C. Part 2 was trimmed to be less than 0.5 cm in at least one dimension, submerged in five volumes of RNAlater solution, and stored at −20°C.

[1] = system: ClpP‐KO MDA‐MB‐231 and SUM159 cells; assay: Cell growth in ClpP‐KO cells; format: cell-based, human; conditions: concentrations as high as 1 μM, up to 72 h
Description: sgRNA against human ClpP (Eurofins Genomics) was annealed and ligated into vector VDB783. This vector was transformed into DH5α cells and the presence of sgRNA was confirmed by colony PCR. Lentivirus was produced in HEK293T cells following transfection with plasmid and jetPRIME (PolyPlus) as previously described.[43] Clonal populations of SUM159 cells infected with dCas9‐KRAB lentivirus were clonally isolated to ensure dCas9‐KRAB expression. Isolated SUM159 cells were infected with ClpP sgRNA lentivirus followed by additional selection passage in growth media supplemented with […] puromycin.
Total cell counting assays were performed by seeding MDA‐MB‐231 cells (WT and ClpP‐KO; 4000 cells/well) or SUM159 (WT and ClpP‐KO; 1000 cells/well) in a 96‐well plate (Perkin Elmer, 6005050) and allowed to adhere overnight. The growth medium was then aspirated and replaced with 100 μl of growth medium supplemented with the drug at concentrations indicated in the figure or figure legends. Cells treated with vehicle control (0.1% DMSO, Sigma‐Aldrich D2650) were used as a negative control in all experiments, and cells were incubated with drug‐containing media for 24, 48, or 72 h as indicated in figure legends. […] The total cell number was then quantified using the Celigo Imaging Cytometer (Nexcelom).

Compound: N#Cc1cccc(CN2CCc3ncn(Cc4ccc(Cl)cc4)c(=O)c3C2)c1 [TR‐107]
- IC50 (MDA‐MB‐231 cells; WT cells, Hoechst stain, mean N = 3, read-out: IC50 (nM) MDA-MB-231): 23 nM
- IC50 (MDA‐MB‐231 cells; media containing galactose, read-out: IC50 (nM) Galactose): 9.8 nM
- IC50 (MDA‐MB‐231 cells; media containing glucose, read-out: IC50 (nM) Glucose): 19 nM
- shift of growth inhibition dose–response (IC50) glucose to galactose (MDA‐MB‐231 cells; galactose instead of glucose, MDA‐MB‐231, 72 h): ~ 2 fold
- reduction in tumor volume (MDA‐MB‐231 xenografts; 4 mg/kg (G2) and 8 mg/kg (G3) oral, day 26, vs vehicle): ~ 50%
- increase in median survival (MDA‐MB‐231 xenografts; 4 mg/kg and 8 mg/kg oral, both groups, vs vehicle): ~ 35%
- mitochondrial DNA in tumor lysates (MDA‐MB‐231 xenografts; 8 mg/kg (G3) vs control, end of study): substantial loss
- PYCR2 and HMGCS1 protein levels in tumor lysates (MDA‐MB‐231 xenografts; 8 mg/kg vs vehicle): significantly reduced
- TFAM in xenograft tumor lysates (immunoblot) (MDA‐MB‐231 xenografts; 8 mg/kg vs vehicle): significant loss
- weight loss (MDA‐MB‐231 xenografts; even at the highest dosing regimen): less than 5%
- tolerability (MDA‐MB‐231 xenografts; oral 4 and 8 mg/kg): well tolerated
- cell growth in ClpP‐KO cells [1]: not inhibited
